Experimental data: patent US10442808B2, “Pyrazolo pyrimidine derivatives and their use as MALT1 inhbitors” (NOVARTIS AG, priority 2014, dated 2019)

molecular target: C-domain of MALT1 (amino acids 329-824) (Homo sapiens (Human), UniProt Q9UDY8); assay: MALT1 biochemical assay (fluorescence lifetime enzyme activity assay); settings: 60 min preincubation, 2.5 nM enzyme, 1 μM substrate
Experimental: The readout parameter is the increase of fluorescence lifetime over time, proportional to enzyme activity.
The assay employs a short peptide substrate labeled with the single fluorophore PT14 as a fluorescence lifetime probe sensitive to the cleavage state of the substrate (PT14: 6-(9-oxo-9H-acridin-10-yl)-hexanoate, AssayMetrics, UK). […] The assay buffer consists of 200 mM Tris/HCl at pH 7.5, 0.8 M Na citrate, 100 μM EGTA, 100 μM DTT and 0.05% (w/v) CHAPS. […] Test compounds were dissolved in 100% (v/v) DMSO or a mixture containing 90% (v/v) DMSO and 10% (v/v) H2O at a stock concentration of 100 mM. Serial dilutions of test compounds were prepared using either 100% (v/v) DMSO or a mixture containing 90% (v/v) DMSO and 10% (v/v) H2O.
The exponent, p, is the Hill coefficient.

Chain of C-domain of MALT1 (amino acids 329-824) (Q9UDY8 329-824): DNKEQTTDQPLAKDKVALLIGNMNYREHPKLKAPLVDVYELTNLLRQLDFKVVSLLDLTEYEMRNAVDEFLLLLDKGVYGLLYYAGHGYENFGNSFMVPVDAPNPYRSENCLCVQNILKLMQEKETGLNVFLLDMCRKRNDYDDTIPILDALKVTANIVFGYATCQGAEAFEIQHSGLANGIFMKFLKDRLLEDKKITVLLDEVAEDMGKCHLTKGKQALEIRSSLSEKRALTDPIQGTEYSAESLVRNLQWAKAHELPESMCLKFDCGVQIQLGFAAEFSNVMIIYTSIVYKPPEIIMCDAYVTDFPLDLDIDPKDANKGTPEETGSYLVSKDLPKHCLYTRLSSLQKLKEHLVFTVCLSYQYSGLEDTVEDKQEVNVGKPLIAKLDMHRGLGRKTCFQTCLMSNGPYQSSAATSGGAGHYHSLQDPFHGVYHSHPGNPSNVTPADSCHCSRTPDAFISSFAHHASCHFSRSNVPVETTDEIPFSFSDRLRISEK

| Compound | IC50 [nM] |
| --- | --- |
| CC(C)c1c(NC(=O)Nc2ccc(-c3ccnc(N)n3)c(Cl)c2)cnc2cc(Cl)nn12 [Example 23, 1-(4-(2-aminopyrimidin-4-yl)-3-chlorophenyl)-3-(2-chloro-7-isopropylpyrazolo[1,5-a]pyrimidin-6-yl)urea] | 4 |
| C[C@H](O)c1c(NC(=O)Nc2ccnc(C(F)(F)F)c2)cnc2cc(Cl)nn12 [Example 114, (S)-1-(2-chloro-7-(1-hydroxyethyl)pyrazolo[1,5-a]pyrimidin-6-yl)-3-(2-(trifluoromethyl)pyridin-4-yl)urea] | 7 |
| C[C@H](O[C@H]1CCOC1)c1c(NC(=O)Nc2cnc(-n3nccn3)c(Cl)c2)cnc2cc(Cl)nn12 [Example 101, 1-(5-chloro-6-(2H-1,2,3-triazol-2-yl)pyridin-3-yl)-3-(2-chloro-7-((S)-1-(((S)-tetrahydrofuran-3-yl)oxy)ethyl)pyrazolo [1,5-a]pyrimidin-6-yl)urea] | 5 |
| O=C(Nc1cnc(-n2nccn2)c(Cl)c1)Nc1cnc2cc(Cl)nn2c1C1COCCN1 (stereo not shown) [Example 123, 1-(5-chloro-6-(2H-1,2,3-triazol-2-yl)pyridin-3-yl)-3-(2-chloro-7-(morpholin-3-yl)pyrazolo[1,5-a]pyrimidin-6-yl)urea] | 41 |
| CN[C@@H](C)c1c(NC(=O)Nc2cnc(-n3nccn3)c(Cl)c2)cnc2cc(Cl)nn12 [Example 119, (S)-1-(5-chloro-6-(2H-1,2,3-triazol-2-yl)pyridin-3-yl)-3-(2-chloro-7-(1-(methylamino)ethyl)pyrazolo[1,5-a]pyrimidin-6-yl)urea] | 12 |
| Cc1cc(CO)nn1-c1ccc(NC(=O)Nc2cnc3cc(Cl)nn3c2C(C)C)cc1Cl [Example 28, 1-(3-chloro-4-(3-(hydroxymethyl)-5-methyl-1H-pyrazol-1-yl)phenyl)-3-(2-chloro-7-isopropylpyrazolo[1,5-a]pyrimidin-6-yl)urea] | 9 |
| CC(C)(C)OC(=O)N1CCOC(c2c(NC(=O)Nc3cnc(-n4nccn4)c(Cl)c3)cnc3cc(Cl)nn23)C1 (stereo not shown) [Example 66, tert-butyl 2-(2-chloro-6-(3-(5-chloro-6-(2H-1,2,3-triazol-2-yl)pyridin-3-yl)ureido)pyrazolo[1,5-a]pyrimidin-7-yl)morpholine-4-carboxylate] | 18 |
| Cn1ccnc1-c1c(NC(=O)Nc2cnc(-n3nccn3)c(Cl)c2)cnc2cc(Cl)nn12 [Example 86, 1-(5-chloro-6-(2H-1,2,3-triazol-2-yl)pyridin-3-yl)-3-(2-chloro-7-(1-methyl-1H-imidazol-2-yl)pyrazolo[1,5-a]pyrimidin-6-yl)urea] | 80 |
| O=C(Nc1cnc(-n2nccn2)c(Cl)c1)Nc1cnc2cc(Cl)nn2c1C1CNCCO1 (stereo not shown) [Example 115, 1-(5-chloro-6-(2H-1,2,3-triazol-2-yl)pyridin-3-yl)-3-(2-chloro-7-(morpholin-2-yl)pyrazolo[1,5-a]pyrimidin-6-yl)urea] | 76 |

test system: IL2 promoter; assay: Human IL2 promoter reporter gene assay (RGA) in Jurkat cells; format: cell-based; settings: […], heading: IL2 reporter gene assay IC50, anti-CD28 mAb + PMA stimulation 5.5 h
Experimental: Human IL2 Promoter Reporter Gene Assay (RGA) in Jurkat Cells
The transfected Jurkat clone K22 290_H23 was propagated in RPMI 1640 supplemented with 10% heat inactivated fetal calf serum, 50 μM 2-mercaptoethanol and 1 mg/ml Geneticin. The cell concentration should not exceed 1×10e6/ml during culturing. The cells should not exceed passage 30. Prior to the assay the cells were washed and prepared to the concentration of 2×10e6 cells/ml.
Compound dilutions were made as 2×-concentrated solutions then diluted ½ by addition to cells. Two hundred and fifty μl of compound dilution and 250 μl of cells were mixed together in wells of a 96-deep well plate. Cells/compounds premix were incubated 30 min at 37° C. and 5% CO2 directly in the deep well plate.
After pre-incubation of cells with compounds, cells were stimulated with anti-CD28 mAb (clone 15E8) at 3 μg/ml+PMA at 1 μg/ml. Both co-stimulants were diluted in culture medium at a 10×-concentrated solution. 10 μl of co-stimulants were pipetted into the white 96-well plates and 100 μl of cell/compound mix was immediately added in duplicates. The cells were stimulated for 5.5 h at 37° C. and 5% CO2.
After cell stimulation, 50 μl of BriteLitePlus reagent (Perkin Elmer) was added to each well and the bioluminescence was measured with a Wallac EnVision reader (Perkin Elmer).

| Compound | IC50 [nM] |
| --- | --- |
| CC(C)c1c(NC(=O)Nc2ccc(-c3ccnc(N)n3)c(Cl)c2)cnc2cc(Cl)nn12 [Example 23, 1-(4-(2-aminopyrimidin-4-yl)-3-chlorophenyl)-3-(2-chloro-7-isopropylpyrazolo[1,5-a]pyrimidin-6-yl)urea] | 526 |
| CC(C)(C)OC(=O)N1CCOC(c2c(NC(=O)Nc3cnc(-n4nccn4)c(Cl)c3)cnc3cc(Cl)nn23)C1 (stereo not shown) [Example 66, tert-butyl 2-(2-chloro-6-(3-(5-chloro-6-(2H-1,2,3-triazol-2-yl)pyridin-3-yl)ureido)pyrazolo[1,5-a]pyrimidin-7-yl)morpholine-4-carboxylate] | 28 |
| Cn1ccnc1-c1c(NC(=O)Nc2cnc(-n3nccn3)c(Cl)c2)cnc2cc(Cl)nn12 [Example 86, 1-(5-chloro-6-(2H-1,2,3-triazol-2-yl)pyridin-3-yl)-3-(2-chloro-7-(1-methyl-1H-imidazol-2-yl)pyrazolo[1,5-a]pyrimidin-6-yl)urea] | 44 |
| CO[C@H](C)CO[C@@H](C)c1c(NC(=O)Nc2cnc(-n3nccn3)c(Cl)c2)cnc2cc(Cl)nn12 [Example 85, 1-(5-chloro-6-(2H-1,2,3-triazol-2-yl)pyridin-3-yl)-3-(2-chloro-7-((S)-1-((R)-2 methoxypropoxy)ethyl)pyrazolo[1,5-a]pyrimidin-6-yl)urea] | 68 |
| C[C@H](OCCN(C)C)c1c(NC(=O)Nc2cnc(-n3nccn3)c(Cl)c2)cnc2cc(Cl)nn12 [Example 82, (S)-1-(5-chloro-6-(2H-1,2,3-triazol-2-yl)pyridin-3-yl)-3-(2-chloro-7-(1-(2-(dimethylamino)ethoxy)ethyl)pyrazolo[1,5-a]pyrimidin-6-yl)urea] | 16 |
| CO[C@@H](C)c1c(NC(=O)Nc2cnc(-n3nccn3)c(Cl)c2)cnc2cc(C#N)nn12 [Example 96, (S)-1-(5-chloro-6-(2H-1,2,3-triazol-2-yl)pyridin-3-yl)-3-(2-cyano-7-(1-methoxyethyl)pyrazolo[1,5-a]pyrimidin-6-yl)urea] | 52 |
| Cc1cc2ncc(NC(=O)Nc3cnc(-n4nccn4)c(Cl)c3)c(C3(C)CCCO3)n2n1 (stereo not shown) [Example 104, 1-(5-chloro-6-(2H-1,2,3-triazol-2-yl)pyridin-3-yl)-3-(2-methyl-7-(2-methyltetrahydrofuran-2-yl)pyrazolo[1,5-a]pyrimidin-6-yl)urea] | 134 |
| CN(C)C1(c2c(NC(=O)Nc3cnc(-n4nccn4)c(Cl)c3)cnc3cc(Cl)nn23)CC1 [Example 88, 1-(5-chloro-6-(2H-1,2,3-triazol-2-yl)pyridin-3-yl)-3-(2-chloro-7-(1-(dimethylamino)cyclopropyl)pyrazolo[1,5-a]pyrimidin-6-yl)urea] | 84 |
| CC(C)c1c(NC(=O)Nc2cnc(-n3nccn3)c(Cl)c2)cnc2cc(Cl)nn12 [Example 21, 1-(5-chloro-6-(2H-1,2,3-triazol-2-yl)pyridin-3-yl)-3-(2-chloro-7-isopropylpyrazolo[1,5-a]pyrimidin-6-yl)urea] | 307 |
| CO[C@@H](C)c1c(NC(=O)Nc2ccnc(C(F)F)c2)cnc2cc(Cl)nn12 [Example 92, (S)-1-(2-chloro-7-(1-methoxyethyl)pyrazolo [1,5-a]pyrimidin-6-yl)-3-(2-(difluoromethyl)pyridin-4-yl)urea] | 24 |
